Test systems include MOLT-4 leukemia; SF-268 CNS; OVCAR-4 ovarian; SF-295 CNS; 786-0 renal; M14 melanoma; RXF 393 renal; A549 NSCLC; HCC-2998 colon; HL-60(TB) leukemia; HCT-15 colon.
Holding throughout (assay): NCI-60 cell line screen, 48 h

The values that follow come from PubChem BioAssay (NCI).

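Each compound was tested at five concentrations against cells in 96-well plates for 48 hours. TGI denotes the concentration required for complete inhibition of growth.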

Take `O=C1Oc2cc(O)cc(/C=C/c3ccc(O)cc3)c2[C@@]12c1c(O)cc(O)cc1OC2c1cccc(O)c1` (stereo not given in full): the TGI is greater than 100 µM with MOLT-4 leukemia; greater than 100 µM with SF-268 CNS; greater than 100 µM in the assay with OVCAR-4 ovarian; 88.1 µM with SF-295 CNS; 59.7 µM in the assay with 786-0 renal; greater than 100 µM in the assay on M14 melanoma. The TGI in the assay with RXF 393 renal is 94.3 µM; with A549 NSCLC it was greater than 100 µM; with HCC-2998 colon, 46.2 µM; in the assay with HL-60(TB) leukemia, 97.9 µM; in the assay on HCT-15 colon, greater than 100 µM.

With `CN(C)c1nc(Cl)c2c(-c3ccccc3)c(-c3ccccc3)oc2n1`, the TGI is 96.2 µM with MOLT-4 leukemia; greater than 100 µM in the assay on SF-268 CNS; greater than 100 µM in the assay on OVCAR-4 ovarian; greater than 100 µM in the assay on SF-295 CNS; greater than 100 µM in the assay with 786-0 renal; greater than 100 µM in the assay on M14 melanoma. The TGI in the assay with RXF 393 renal is 45.2 µM; in the assay on A549 NSCLC, greater than 100 µM; in the assay with HCC-2998 colon it was greater than 100 µM; in the assay with HL-60(TB) leukemia, 36 µM; in the assay on HCT-15 colon, greater than 100 µM.

`CCCCn1c2c(n(CCCC)c1=S)-c1c(n(CCCC)c(=S)n1CCCC)SSc1c(n(CCCC)c(=S)n1CCCC)-c1c(n(CCCC)c(=S)n1CCCC)SSc1c(n(CCCC)c(=S)n1CCCC)-c1c(n(CCCC)c(=S)n1CCCC)SS2`: the TGI in the assay on MOLT-4 leukemia was greater than 50 µM; with SF-268 CNS it was greater than 30.2 µM; with OVCAR-4 ovarian it was greater than 19.7 µM; with SF-295 CNS, greater than 37 µM; with 786-0 renal it was greater than 50 µM; in the assay on M14 melanoma, greater than 50 µM. The TGI with RXF 393 renal was greater than 50 µM; with A549 NSCLC it was greater than 50 µM; with HCC-2998 colon it was greater than 50 µM; in the assay on HL-60(TB) leukemia, 4.46 µM; in the assay with HCT-15 colon it was 30.4 µM.

Turning to `N#Cc1c(N)nc(Sc2ccccc2N)c(C#N)c1-c1ccc(Cl)cc1`, the TGI with MOLT-4 leukemia was greater than 24.6 µM; with SF-268 CNS it was 23.8 µM; with OVCAR-4 ovarian, greater than 100 µM; with SF-295 CNS, 25.9 µM; in the assay with 786-0 renal, 42.7 µM; in the assay on M14 melanoma, 38.5 µM. In addition, the TGI is 49.9 µM in the assay on RXF 393 renal; greater than 75.2 µM in the assay on A549 NSCLC; 36 µM in the assay on HCC-2998 colon; greater than 100 µM in the assay on HL-60(TB) leukemia; 54.7 µM in the assay on HCT-15 colon.

As for `CCC(=O)Nc1ccc(N2C(=O)C(Cl)C2c2ccc(SC)cc2)cc1` (stereo not given), the TGI in the assay with MOLT-4 leukemia, in the assay with SF-268 CNS, in the assay on OVCAR-4 ovarian, in the assay with SF-295 CNS, in the assay on 786-0 renal and in the assay with M14 melanoma was greater than 100 µM throughout. The TGI was greater than 100 µM in the assay on RXF 393 renal; greater than 100 µM in the assay with A549 NSCLC; 96.9 µM in the assay with HCC-2998 colon; greater than 100 µM in the assay with HL-60(TB) leukemia; greater than 100 µM in the assay on HCT-15 colon.
